US7538094B2, “Composition containing ribavirin and use thereof” (Three Rivers Pharmacueticals, LLC, priority 2002, dated 2009)

Tests used:
[1] = Angle of repose (flowability); type: physicochemical; conditions: sample passed through 12 mesh screen, funnel with 1 cm aperture
Text: Another measure of flowability can be made by determining a material's angle of repose. The angle of repose is a standard test in the pharmaceutical industry to establish the relative flowability of a solid pharmaceutical formulation. (See, e.g., Lachman et al., “The Theory and Practice of Industrial Pharmacy” 3rd Ed. (1986) pp 67-68). A greater angle of repose means a less flowable material. Remington's Pharmaceuticals Sciences lists the angle of repose for glass beads (a high flowing material) at 23 degrees and for granular limestone (a poor flowing material) at 64 degrees. Cohesive materials can be as high as 90 degrees. (See Remington's Pharmaceutical Sciences, 19th Ed. Mack Publishing Co., (1995) p. 1607).
Angle of repose data was collected for ribavirin composition made in accordance with Examples 1 and 3 and compared to bulk ribavirin and a commercial ribavirin product. In determining the angle of repose for the compositions of the present invention and comparative examples thereto, a sample was passed through a 12 mesh screen to break up agglomerates. […] The funnel height was then measured, as well as the diameter (width) of the sample. […] The angle of repose for a given sample was calculated by taking the inverse tangent of the following equation: Tan (a)=2H/W, where H is the height of the funnel from the paper and W is the averaged diameter of the poured sample at its base.

[2] = cited from earlier work
[3] = cited from earlier work; remark: listed apart in the source

Repose Angle, Trial 1 ([1]; Trial 1): 44 ° | Repose Angle, Trial 2 ([1]; Trial 2): 42 °
SMILES: NC(=O)c1ncn([C@@H]2O[C@H](CO)[C@@H](O)[C@H]2O)n1 [ribavirin, 1-β-D-ribofuranosyl-1H-1,2,4-triazole-3-carboxamide]
solubility [2]: water-soluble | bioavailability with food ([3]; administered with a high fat meal): increase significantly | biological half-life ([3]; in vivo, after multiple oral dosing (steady state)): ca. 298 hours | bioavailability (AUC) versus dose ([3]; oral administration, Physician's Desk Reference): increases linearly with the dose | maximum concentration of the drug in vivo (Cmax) versus dose ([3]; oral administration, curvilinear, reaching an asymptote, Physician's Desk Reference): does not increase linearly with the dose
